For 4 compounds, Ki results are on record in BindingDB's records for doi:10.1124/jpet.105.083337 (Neurocrine Biosciences, 2005).

pKi: −log10 of the molar value.

Melanocortin receptor 4, sequence (P32245 whole entry): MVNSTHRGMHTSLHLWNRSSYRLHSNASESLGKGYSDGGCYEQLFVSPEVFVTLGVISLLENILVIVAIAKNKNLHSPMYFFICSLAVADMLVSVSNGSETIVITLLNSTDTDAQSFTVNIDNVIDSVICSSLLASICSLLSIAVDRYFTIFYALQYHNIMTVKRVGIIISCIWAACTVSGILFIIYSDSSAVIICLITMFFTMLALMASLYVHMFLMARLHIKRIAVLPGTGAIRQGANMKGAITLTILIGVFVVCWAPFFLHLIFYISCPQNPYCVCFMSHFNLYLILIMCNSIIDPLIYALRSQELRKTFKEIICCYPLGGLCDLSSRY

This assay concerns the target Melanocortin receptor 4 (Homo sapiens, UniProt P32245).
What is called pKi is the negative decadic logarithm of the Ki, by convention in mol/L. Lower therefore signals a large Ki. Turning to `C[C@@H]1CN(Cc2ccccc2N2CCN(C(=O)[C@@H](Cc3ccc(Cl)cc3)NC(=O)[C@H]3Cc4ccccc4CN3)CC2)[C@@H](C)CN1` [NBI-56297], the pKi is 7.70. Compound `CN(Cc1ccccc1N1CCN(C(=O)[C@@H](Cc2ccc(Cl)cc2)NC(=O)[C@H]2Cc3ccccc3CN2)CC1)C1CCCNC1` (some centres undefined) [NBI-58702] had a pKi of 8.20. For the compound `CN(Cc1cccnc1)Cc1ccccc1N1CCN(C(=O)[C@@H](Cc2ccc(Cl)cc2)NC(=O)[C@H]2Cc3ccccc3CN2)CC1`, the pKi is 7.13. With `CC(Nc1cc[nH]c1)c1ccccc1N1CCN(C(=O)[C@@H](Cc2ccc(Cl)cc2)NC(=O)[C@H]2Cc3ccccc3CN2)CC1` (some centres undefined) [NBI-58704] the figure was 7.87.
